The values that follow are results of earlier work, collected in patent US7419680B2, “Calcium phosphate-based materials containing zinc, magnesium, fluoride and carbonate” (New York University, priority 2003, dated 2008).

The conditions of this series: earlier studies.

For b-alanyl-L-histadanato zinc, the “bone density / bone loss in vivo” value was “effective in increasing bone density or in preventing bone loss in vivo”.
